melting point [°C] | SMILES
143.6 to 145.3 | COc1ccccc1CC(=O)N(C)c1c(-c2ccncc2)c(-c2ccc(F)cc2)nn1C [Example 131, 3-(4-Fluorophenyl)-5-[N-methyl-N-(2-methoxyphenylacetyl)amino]-1-methyl-4-(4-pyridyl)pyrazole]
287.5 to 290.2 | Cn1nc(-c2ccc(F)cc2)c(-c2ccncc2)c1NC(=O)Nc1ccccc1 [Example 136, 3-(4-fluorophenyl)-1-methyl-5-(phenylaminocarbonylamino)-4-(4-pyridyl)pyrazole]
181 to 183.3 | O=S(=O)(Nc1n[nH]c(-c2ccc(F)cc2)c1-c1ccncc1)c1ccccc1 [Example 139, 5-(4-fluorophenyl)-3-phenylsulfonylamino-4-(4-pyridyl)pyrazole]
221.2 to 221.5 | Cc1ccc(S(=O)(=O)Nc2n[nH]c(-c3ccc(F)cc3)c2-c2ccncc2)cc1 [Example 140, 5-(4-Fluorophenyl)-4-(4-pyridyl)-3-(p-toluenesulfonylamino)pyrazole]

From patent US6511997B1, “Aminopyrazole derivatives” (Teikoku Hormone Mfg. Co., Ltd., priority 1998, dated 2003)
